By IC50 is commonly meant the midpoint of a concentration-inhibition curve.

T1 sequence (P41595 whole entry): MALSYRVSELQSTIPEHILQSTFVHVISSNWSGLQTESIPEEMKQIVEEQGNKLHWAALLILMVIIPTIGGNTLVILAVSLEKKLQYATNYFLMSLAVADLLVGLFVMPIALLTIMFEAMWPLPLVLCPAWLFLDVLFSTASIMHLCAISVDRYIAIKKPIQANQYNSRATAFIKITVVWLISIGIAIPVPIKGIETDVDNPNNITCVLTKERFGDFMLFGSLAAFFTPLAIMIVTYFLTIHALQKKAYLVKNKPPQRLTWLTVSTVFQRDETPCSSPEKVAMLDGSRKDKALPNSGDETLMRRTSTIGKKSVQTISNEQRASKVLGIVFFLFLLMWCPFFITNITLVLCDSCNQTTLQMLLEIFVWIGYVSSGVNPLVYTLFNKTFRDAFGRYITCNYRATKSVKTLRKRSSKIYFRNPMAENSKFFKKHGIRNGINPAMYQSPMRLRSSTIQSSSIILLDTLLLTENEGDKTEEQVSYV

The test addresses T1, 5HTR2B (Homo sapiens, UniProt P41595).
T1 construct: host or cells: human Maverick/293 cells
Nature of the test: 5HTR2B antagonist activity, calcium mobilization assay in human Maverick/293 cells (serotonin as agonist). The test is classed as cell-based. The following applies: intracellular calcium, emission 525 nm, read-out: Ca assay IC50. In short, it runs like this:
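Calcium mobilization read over 80 s at ex 485/em 525 nm after serotonin addition. Before that, 2 h serum-free starvation, 50 min dye loading at 37 °C, and 15-30 min antagonist exposure. IC50 from sigmoidal fit of peak % inhibition.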
On the technique in general: Calcium assays in cells follow changes in intracellular calcium, usually with a dye or a luminescent sensor.
Regarding `COc1ccc(S(=O)(=O)N[C@H]2CCOC2)cc1C(=O)Nc1ccccc1Br` [Compound 123, (S)—N-(2-Bromophenyl)-2-methoxy-5-(N-(tetrahydrofuran-3-yl)sulfamoyl) benzamide], the IC50 was 0.2 nM.

For the compound `COc1ccc(S(=O)(=O)N[C@H]2CCOC2)cc1C(=O)Nc1cccc(Br)c1` [Compound 124, (S)—N-(3-Bromophenyl)-2-methoxy-5-(N-(tetrahydrofuran-3-yl)sulfamoyl) benzamide], the concentration for half-maximal inhibition (IC50) amounted to 6.3 nM.

As for `COc1ccc(S(=O)(=O)N[C@H]2CCOC2)cc1C(=O)Nc1ccc(Br)cc1` [Compound 125, (S)—N-(4-Bromophenyl)-2-methoxy-5-(N-(tetrahydrofuran-3-yl)sulfamoyl) benzamide], the IC50 was found to be 28 nM.

For `COc1ccc(S(=O)(=O)N[C@H]2CCOC2)cc1C(=O)Nc1cccc(Cl)c1` [Compound 126, (S)—N-(3-Chlorophenyl)-2-methoxy-5-(N-(tetrahydrofuran-3-yl)sulfamoyl) benzamide], the IC50 is 12 nM.

For `COc1ccc(S(=O)(=O)N[C@H]2CCOC2)cc1C(=O)Nc1ccccc1Cl` [Compound 127, (S)—N-(2-Chlorophenyl)-2-methoxy-5-(N-(tetrahydrofuran-3-yl)sulfamoyl) benzamide], the IC50 worked out at 0.1 nM.

As to `COc1ccc(S(=O)(=O)N[C@H]2CCOC2)cc1C(=O)Nc1ccccc1OC(F)F` [Compound 128, (S)—N-(2-(Difluoromethoxy)phenyl)-2-methoxy-5-(N-(tetrahydrofuran-3-yl)sulfamoyl)benzamide], the IC50 was 1.2 nM.

As for `COc1ccc(S(=O)(=O)N[C@H]2CCOC2)cc1C(=O)Nc1ccc(C)cc1` [Compound 129, (S)-2-Methoxy-5-(N-(tetrahydrofuran-3-yl)sulfamoyl)-N-(p-tolyl)benzamide], the IC50 was found to be 12 nM.

`COc1ccc(S(=O)(=O)N[C@H]2CCOC2)cc1C(=O)Nc1c(F)cccc1OC` [Compound 130, (S)—N-(2-Fluoro-6-methoxyphenyl)-2-methoxy-5-(N-(tetrahydrofuran-3-yl)sulfamoyl)benzamide]: the IC50 was found to be 2.1 nM.

Take `COc1ccc(S(=O)(=O)N[C@H]2CCOC2)cc1C(=O)Nc1ccc(F)cc1C` [Compound 131, (S)—N-(4-Fluoro-2-methylphenyl)-2-methoxy-5-(N-(tetrahydrofuran-3-yl)sulfamoyl)benzamide]: the IC50 is 1.3 nM.

For the compound `COc1ccc(S(=O)(=O)N[C@H]2CCOC2)cc1C(=O)Nc1ncc(F)cc1C` [Compound 132, (S)—N-(5-fluoro-3-methylpyridin-2-yl)-2-methoxy-5-(N-(tetrahydrofuran-3-yl)sulfamoyl)benzamide], the IC50 is 163 nM.

On to `COc1ccc(S(=O)(=O)N[C@H]2CCOC2)cc1C(=O)Nc1ncccc1C` [Compound 133, (S)-2-Methoxy-N-(3-methylpyridin-2-yl)-5-(N-(tetrahydrofuran-3-yl)sulfamoyl) benzamide], for which the IC50 is 405 nM.

Regarding `COc1ccc(S(=O)(=O)N[C@H]2CCOC2)cc1C(=O)Nc1cccc(F)c1OC` [Compound 134, (S)—N-(3-fluoro-2-methoxyphenyl)-2-methoxy-5-(N-(tetrahydrofuran-3-yl)sulfamoyl)benzamide], the IC50 is 0.5 nM.

As to `COc1cc(F)ccc1NC(=O)c1cc(S(=O)(=O)N[C@H]2CCOC2)ccc1OC` [Compound 135, (S)—N-(4-fluoro-2-methoxyphenyl)-2-methoxy-5-(N-(tetrahydrofuran-3-yl)sulfamoyl)benzamide], the IC50 was found to be 0.1 nM.

`CCOc1ccccc1NC(=O)c1cc(S(=O)(=O)N[C@H]2CCOC2)ccc1OC` [Compound 136, (S)—N-(2-ethoxyphenyl)-2-methoxy-5-(N-(tetrahydrofuran-3-yl)sulfamoyl) benzamide]: the IC50 came to 0.4 nM.

On to `COc1ccc(S(=O)(=O)N[C@H]2C[C@H](O)C2)cc1C(=O)Nc1cc(C)ccc1Cl` [Compound 137a, N-(2-chloro-5-methylphenyl)-5-(N-((trans)-3-hydroxycyclobutyl)sulfamoyl)-2-methoxybenzamide], for which the IC50 came to 17.1 nM.

Regarding `COc1ccc(S(=O)(=O)N[C@H]2C[C@@H](O)C2)cc1C(=O)Nc1cc(C)ccc1Cl` [Compound 137b, N-(2-Chloro-5-methylphenyl)-5-(N-((cis)-3-hydroxycyclobutyl)sulfamoyl)-2-methoxybenzamide], the concentration for half-maximal inhibition (IC50) turned out to be 39 nM.

Take `COc1ccc(S(=O)(=O)N[C@H]2C[C@H](O)C2)cc1C(=O)Nc1c(C)cccc1Cl` [Compound 138a, N-(2-Chloro-6-methylphenyl)-5-(N-((trans)-3-hydroxycyclobutyl)sulfamoyl)-2-methoxybenzamide]: the IC50 was 159 nM.

Consider `COc1ccc(S(=O)(=O)N[C@H]2C[C@@H](O)C2)cc1C(=O)Nc1c(C)cccc1Cl` [Compound 138b, N-(2-Chloro-6-methylphenyl)-5-(N-((cis)-3-hydroxycyclobutyl)sulfamoyl)-2-methoxybenzamide], for which the concentration for half-maximal inhibition (IC50) was 329 nM.

For `COc1ccc(S(=O)(=O)N[C@H]2C[C@H](O)C2)cc1C(=O)Nc1cccc(C)c1Cl` [Compound 140a, N-(2-Chloro-3-methylphenyl)-5-(N-((trans)-3-hydroxycyclobutyl)sulfamoyl)-2-methoxybenzamide], the IC50 turned out to be 3.9 nM.

Turning to `COc1ccc(S(=O)(=O)N[C@H]2C[C@@H](O)C2)cc1C(=O)Nc1cccc(C)c1Cl` [Compound 140b, N-(2-Chloro-3-methylphenyl)-5-(N-((cis)-3-hydroxycyclobutyl)sulfamoyl)-2-methoxybenzamide], the IC50 stood at 0.9 nM.

As to `COc1ccc(S(=O)(=O)N[C@H]2C[C@@H](O)C2)cc1C(=O)Nc1ccc(F)c(C)n1` [Compound 141], the IC50 stood at 2.8 nM.

As to `COc1ccc(S(=O)(=O)N[C@H]2C[C@H](O)C2)cc1C(=O)Nc1ccc(F)c(C(F)F)c1` [Compound 142a, N-(3-(difluoromethyl)-4-fluorophenyl)-5-(N-((trans)-3-hydroxycyclobutyl)sulfamoyl)-2-methoxybenzamide], the IC50 came to 2.2 nM.

For `COc1ccc(S(=O)(=O)N[C@H]2C[C@@H](O)C2)cc1C(=O)Nc1ccc(F)c(C(F)F)c1` [Compound 142b, N-(3-(difluoromethyl)-4-fluorophenyl)-5-(N-((cis)-3-hydroxycyclobutyl)sulfamoyl)-2-methoxybenzamide], the IC50 worked out at 1.1 nM.

Turning to `COc1ccc(S(=O)(=O)N[C@H]2C[C@H](O)C2)cc1C(=O)Nc1ccc(Cl)cc1F` [Compound 143a, N-(4-chloro-2-fluorophenyl)-5-(N-((trans)-3-hydroxycyclobutyl)sulfamoyl)-2-methoxybenzamide], the IC50 came to 0.7 nM.

For the compound `COc1ccc(S(=O)(=O)N[C@H]2C[C@@H](O)C2)cc1C(=O)Nc1ccc(Cl)cc1F` [Compound 143b, N-(4-chloro-2-fluorophenyl)-5-(N-((cis)-3-hydroxycyclobutyl)sulfamoyl)-2-methoxybenzamide], the IC50 was found to be 5.9 nM.

Take `COc1ccc(S(=O)(=O)N[C@H]2C[C@H](O)C2)cc1C(=O)Nc1ccc(F)cc1Cl` [Compound 144a, N-(2-chloro-4-fluorophenyl)-5-(N-((trans)-3-hydroxycyclobutyl)sulfamoyl)-2-methoxybenzamide]: the IC50 came to 0.5 nM.

For the compound `COc1ccc(S(=O)(=O)N[C@H]2C[C@@H](O)C2)cc1C(=O)Nc1ccc(F)cc1Cl` [Compound 144b, N-(2-chloro-4-fluorophenyl)-5-(N-((cis)-3-hydroxycyclobutyl)sulfamoyl)-2-methoxybenzamide], the IC50 was 0.3 nM.

For `COc1ccc(S(=O)(=O)N[C@H]2C[C@H](O)C2)cc1C(=O)Nc1ccc(F)cc1F` [Compound 145a, N-(2,4-difluorophenyl)-5-(N-((trans)-3-hydroxycyclobutyl)sulfamoyl)-2-methoxybenzamide], the IC50 is 2.5 nM.

Take `COc1ccc(S(=O)(=O)N[C@H]2C[C@@H](O)C2)cc1C(=O)Nc1ccc(F)cc1F` [Compound 145b, N-(2,4-difluorophenyl)-5-(N-((cis)-3-hydroxycyclobutyl)sulfamoyl)-2-methoxybenzamide]: the IC50 turned out to be 1 nM.

As to `COc1ccc(S(=O)(=O)N[C@H]2C[C@H](O)C2)cc1C(=O)Nc1cc(F)ccc1Cl` [Compound 146a, N-(2-chloro-5-fluorophenyl)-5-(N-((trans)-3-hydroxycyclobutyl)sulfamoyl)-2-methoxybenzamide], the IC50 was 0.8 nM.

Turning to `COc1ccc(S(=O)(=O)N[C@H]2C[C@@H](O)C2)cc1C(=O)Nc1cc(F)ccc1Cl` [Compound 146b, N-(2-chloro-5-fluorophenyl)-5-(N-((cis)-3-hydroxycyclobutyl)sulfamoyl)-2-methoxybenzamide], the IC50 is 1 nM.

For `COCCOC[C@H](C)NS(=O)(=O)c1ccc(OC)c(C(=O)Nc2ccc(F)cc2F)c1` [Compound 147a, (S)—N-(2,4-Difluorophenyl)-2-methoxy-5-(N-(1-(2-methoxyethoxy)propan-2-yl)sulfamoyl)benzamide], the IC50 worked out at 3.4 nM.

`COCCOC[C@@H](C)NS(=O)(=O)c1ccc(OC)c(C(=O)Nc2ccc(F)cc2F)c1` [Compound 147b, (R)—N-(2,4-Difluorophenyl)-2-methoxy-5-(N-(1-(2-methoxyethoxy)propan-2-yl)sulfamoyl)benzamide]: the IC50 was found to be 2.1 nM.

As to `COc1ccc(S(N)(=O)=O)cc1C(=O)Nc1ccc(F)cc1F` [Compound 148, N-(2,4-Difluorophenyl)-2-methoxy-5-sulfamoylbenzamide], the IC50 came out at 161 nM.

For `COc1ccc(S(=O)(=O)N[C@H]2CCOC2)cc1C(=O)Nc1ccccc1C(F)(F)F` [Compound 149, (S)-2-Methoxy-5-(N-(tetrahydrofuran-3-yl)sulfamoyl)-N-(2-(trifluoromethyl)phenyl)benzamide], the IC50 is 8.4 nM.

As to `COc1ccc(S(=O)(=O)N[C@H]2CCOC2)cc1C(=O)Nc1ccccc1OC(F)(F)F` [Compound 150, (S)-2-Methoxy-5-(N-(tetrahydrofuran-3-yl)sulfamoyl)-N-(2-(trifluoromethoxy)phenyl)benzamide], the IC50 worked out at 9.9 nM.
